Data reported in patent US20260167656A1, “PHOSPHORAMIDATE COMPOUNDS AND USES THEREOF” (ALLORION THERAPEUTICS INC, priority 2022, published 2026).

Columns and labels:
[1] = test system: non-small cell lung cancer cell line H460; assay: In vitro human cancer cell line cytotoxicity (proliferation) assay in H460, CellTiter-Glo, 72 hours; format: cell-based; conditions: H460 cells, DMSO condition (no AKR1C3 inhibitor), read-out: CTG H460: Avg IC50 (nM) [Assay Condition: DMSO]
Description: Biological Example 1. In Vitro Human Cancer Cell Line Cytotoxicity Assay
IC50 values in nanomolar reported here were derived from in vitro proliferation assay data in non-small cell lung cancer cell line H460.
(§1) Specifically, exponentially growing cells were seeded at density of 3×10^3 cells per well in 96-well plate and incubated at 37° C. in 5% CO2, 95% air and 100% relative humidity for 24 hours before adding compounds. Compounds were solubilized in 100% DMSO at 10 mM. Compounds were added to the plate using Tecan D300e® digital Dispenser. After drug addition, the plates were incubated for an additional 72 hours at 37° C. in 5% CO2, 95% air and 100% relative humidity. At the end of the incubation, cell viability was quantified with CellTiter-Glo® assay.

[2] = test system: non-small cell lung cancer cell line H460; assay: H460 proliferation assay in the presence of 3 uM ASP9521 (AKR1C3 specific inhibitor); format: cell-based, human; conditions: H460 cells, CellTiter-Glo, 72 hours, in the presence of 3 uM ASP9521 added 4 hours prior to compounds; read-out: CTG H460: Avg IC50 (nM) [Assay Condition: ASP9521]
Description: as §1
To further confirm that compounds were activated by human AKR1C3, H460 proliferation assay were also performed in the presence of 3 uM […], an AKR1C3 specific inhibitor. ASP9521 were added to the plates 4 hours prior to the addition of compounds.

CN(C)C(=O)c1cccc(Oc2c([N+](=O)[O-])ccc3c2CCC3OP(=O)(N2CC2)N2CC2)c1 (single isomer, unassigned) [Example 32]
IC50 ([1]; Homo sapiens, NCI-H460, 72 h): < 10 nM | IC50 [2]: 145 nM

CN(C)C(=O)c1cccc(Oc2c([N+](=O)[O-])ccc3c2CCC3OP(=O)(N2CC2)N2CC2)c1 (single isomer, unassigned) [Example 33]
IC50 [1]: < 10 nM | IC50 [2]: 476 nM

O=C1c2cc(Oc3c([N+](=O)[O-])ccc4c3CC[C@H]4OP(=O)(N3CC3)N3CC3)ccc2CN1C1CC1 (single isomer, unassigned) [Example 38]
IC50 ([1]; Homo sapiens, NCI-H460, 72 h): < 10 nM | IC50 [2]: 537 nM

O=C1c2cc(Oc3c([N+](=O)[O-])ccc4c3CC[C@@H]4OP(=O)(N3CC3)N3CC3)ccc2CN1C1CC1 (single isomer, unassigned) [Example 39]
IC50 ([1]; Homo sapiens, NCI-H460, 72 h): < 10 nM | IC50 [2]: 561 nM

O=[N+]([O-])c1ccc2c(c1Oc1ccc(-c3ccccn3)cc1)CC[C@@H]2OP(=O)(N1CC1)N1CC1 (single isomer, unassigned) [Example 40]
IC50 ([1]; Homo sapiens, NCI-H460, 72 h): < 10 nM | IC50 [2]: 929 nM

O=[N+]([O-])c1ccc2c(c1Oc1ccc(-c3ccccn3)cc1)CC[C@H]2OP(=O)(N1CC1)N1CC1 (single isomer, unassigned) [Example 41]
IC50 ([1]; Homo sapiens, NCI-H460, 72 h): < 10 nM | IC50 [2]: 1090 nM

CN1Cc2cc(Oc3c([N+](=O)[O-])ccc4c3CCC4OP(=O)(N3CC3)N3CC3)ccc2C1=O (single isomer, unassigned) [Example 42]
IC50 ([1]; Homo sapiens, NCI-H460, 72 h): < 10 nM | IC50 [2]: 123 nM

CN1Cc2cc(Oc3c([N+](=O)[O-])ccc4c3CCC4OP(=O)(N3CC3)N3CC3)ccc2C1=O (single isomer, unassigned) [Example 43]
IC50 [1]: < 10 nM | IC50 [2]: 314 nM

O=[N+]([O-])c1ccc2c(c1Oc1ccc(-c3cccnc3)cc1)CCC2OP(=O)(N1CC1)N1CC1 (single isomer, unassigned) [Example 54]
IC50 [1]: < 10 nM | IC50 [2]: 516 nM

Cn1cc(-c2ccc(Oc3c([N+](=O)[O-])ccc4c3CCC4OP(=O)(N3CC3)N3CC3)cc2)cn1 (single isomer, unassigned) [Example 58]
IC50 [1]: 50 to 100 nM | IC50 [2]: 1010 nM

Cn1cc(-c2ccc(Oc3c([N+](=O)[O-])ccc4c3CCC4OP(=O)(N3CC3)N3CC3)cc2)cn1 (single isomer, unassigned) [Example 59]
IC50 [1]: < 10 nM | IC50 [2]: 1360 nM

Cn1c(=O)oc2ccc(Oc3c([N+](=O)[O-])ccc4c3CCC4OP(=O)(N3CC3)N3CC3)cc21 (single isomer, unassigned) [Example 64]
IC50 ([1]; Homo sapiens, NCI-H460, 72 h): < 10 nM | IC50 [2]: 722 nM

Cn1c(=O)oc2ccc(Oc3c([N+](=O)[O-])ccc4c3CCC4OP(=O)(N3CC3)N3CC3)cc21 (single isomer, unassigned) [Example 65]
IC50 [1]: < 10 nM | IC50 [2]: 279 nM

O=C(c1cccc(Oc2c([N+](=O)[O-])ccc3c2CCC3OP(=O)(N2CC2)N2CC2)c1)N1CCCCC1 (single isomer, unassigned) [Example 68]
IC50 ([1]; Homo sapiens, NCI-H460, 72 h): < 10 nM | IC50 [2]: 1160 nM

O=C(c1cccc(Oc2c([N+](=O)[O-])ccc3c2CCC3OP(=O)(N2CC2)N2CC2)c1)N1CCCCC1 (single isomer, unassigned) [Example 69]
IC50 [1]: < 10 nM | IC50 [2]: 573 nM

Cn1cc(-c2cccc(Oc3c([N+](=O)[O-])ccc4c3CCC4OP(=O)(N3CC3)N3CC3)c2)cn1 (single isomer, unassigned) [Example 76]
IC50 ([1]; Homo sapiens, NCI-H460, 72 h): 10 to 50 nM | IC50 [2]: 1120 nM

Cn1cc(-c2cccc(Oc3c([N+](=O)[O-])ccc4c3CCC4OP(=O)(N3CC3)N3CC3)c2)cn1 (single isomer, unassigned) [Example 77]
IC50 [1]: < 10 nM | IC50 [2]: 1890 nM

O=C(c1cccc(Oc2c([N+](=O)[O-])ccc3c2CCC3OP(=O)(N2CC2)N2CC2)c1)N1CCOCC1 (single isomer, unassigned) [Example 125]
IC50 ([1]; Homo sapiens, NCI-H460, 72 h): < 10 nM | IC50 [2]: 766 nM

O=C(c1cccc(Oc2c([N+](=O)[O-])ccc3c2CCC3OP(=O)(N2CC2)N2CC2)c1)N1CCOCC1 (single isomer, unassigned) [Example 126]
IC50 [1]: < 10 nM | IC50 [2]: 159 nM

CN(C)C(=O)c1ccc(Oc2c([N+](=O)[O-])ccc3c2OCCC3OP(=O)(N2CC2)N2CC2)cc1 (single isomer, unassigned) [Example 130]
IC50 ([1]; Homo sapiens, NCI-H460, 72 h): 10 to 50 nM | IC50 [2]: 389 nM

CN(C)C(=O)c1ccc(Oc2c([N+](=O)[O-])ccc3c2OCCC3OP(=O)(N2CC2)N2CC2)cc1 (single isomer, unassigned) [Example 131]
IC50 [1]: < 10 nM | IC50 [2]: 314 nM

O=C1c2cc(Oc3c([N+](=O)[O-])ccc4c3OCCC4OP(=O)(N3CC3)N3CC3)ccc2CN1C1CC1 (single isomer, unassigned) [Example 138]
IC50 ([1]; Homo sapiens, NCI-H460, 72 h): < 10 nM | IC50 [2]: 579 nM

O=C1c2cc(Oc3c([N+](=O)[O-])ccc4c3OCCC4OP(=O)(N3CC3)N3CC3)ccc2CN1C1CC1 (single isomer, unassigned) [Example 139]
IC50 [1]: < 10 nM | IC50 [2]: 839 nM

CN(C)C(=O)c1ccc(Oc2cc3c(cc2[N+](=O)[O-])CCC3OP(=O)(N2CC2)N2CC2)cc1 (single isomer, unassigned) [Example 140]
IC50 ([1]; Homo sapiens, NCI-H460, 72 h): < 10 nM | IC50 [2]: 436 nM

CN(C)C(=O)c1ccc(Oc2cc3c(cc2[N+](=O)[O-])CCC3OP(=O)(N2CC2)N2CC2)cc1 (single isomer, unassigned) [Example 141]
IC50 [1]: < 10 nM | IC50 [2]: 366 nM

CNC(=O)c1ccc(Oc2cc3c(cc2[N+](=O)[O-])CCC3OP(=O)(N2CC2)N2CC2)cc1 (single isomer, unassigned) [Example 150]
IC50 ([1]; Homo sapiens, NCI-H460, 72 h): < 10 nM | IC50 [2]: 297 nM

CNC(=O)c1ccc(Oc2cc3c(cc2[N+](=O)[O-])CCC3OP(=O)(N2CC2)N2CC2)cc1 (single isomer, unassigned) [Example 151]
IC50 [1]: < 10 nM | IC50 [2]: 306 nM

O=[N+]([O-])c1cc2c(cc1Oc1ccc(-c3ccccc3)cc1)C(OP(=O)(N1CC1)N1CC1)CC2 (single isomer, unassigned) [Example 152]
IC50 ([1]; Homo sapiens, NCI-H460, 72 h): < 10 nM | IC50 [2]: 1400 nM

O=[N+]([O-])c1cc2c(cc1Oc1ccc(-c3ccccc3)cc1)C(OP(=O)(N1CC1)N1CC1)CC2 (single isomer, unassigned) [Example 153]
IC50 [1]: < 10 nM | IC50 [2]: 477 nM

O=[N+]([O-])c1cc2c(cc1Oc1cccc(-c3ccccc3)c1)C(OP(=O)(N1CC1)N1CC1)CC2 (single isomer, unassigned) [Example 168]
IC50 ([1]; Homo sapiens, NCI-H460, 72 h): < 10 nM | IC50 [2]: 755 nM

O=[N+]([O-])c1cc2c(cc1Oc1cccc(-c3ccccc3)c1)C(OP(=O)(N1CC1)N1CC1)CC2 (single isomer, unassigned) [Example 169]
IC50 [1]: < 10 nM | IC50 [2]: 766 nM

O=C1c2cc(Oc3cc4c(cc3[N+](=O)[O-])CCC4OP(=O)(N3CC3)N3CC3)ccc2CN1C1CC1 (single isomer, unassigned) [Example 170]
IC50 ([1]; Homo sapiens, NCI-H460, 72 h): < 10 nM | IC50 [2]: 801 nM

O=C1c2cc(Oc3cc4c(cc3[N+](=O)[O-])CCC4OP(=O)(N3CC3)N3CC3)ccc2CN1C1CC1 (single isomer, unassigned) [Example 171]
IC50 [1]: < 10 nM | IC50 [2]: 1100 nM

O=C(NC1CC1)c1ccc(Oc2cc3c(cc2[N+](=O)[O-])CCC3OP(=O)(N2CC2)N2CC2)cc1 (single isomer, unassigned) [Example 172]
IC50 ([1]; Homo sapiens, NCI-H460, 72 h): 10 to 50 nM | IC50 [2]: 4900 nM

O=C(NC1CC1)c1ccc(Oc2cc3c(cc2[N+](=O)[O-])CCC3OP(=O)(N2CC2)N2CC2)cc1 (single isomer, unassigned) [Example 173]
IC50 [1]: < 10 nM | IC50 [2]: 2980 nM

O=[N+]([O-])c1cc2c(cc1Oc1ccc(-c3ccccn3)cc1)C(OP(=O)(N1CC1)N1CC1)CC2 (single isomer, unassigned) [Example 188]
IC50 ([1]; Homo sapiens, NCI-H460, 72 h): < 10 nM | IC50 [2]: 2070 nM

O=[N+]([O-])c1cc2c(cc1Oc1ccc(-c3ccccn3)cc1)C(OP(=O)(N1CC1)N1CC1)CC2 (single isomer, unassigned) [Example 189]
IC50 [1]: < 10 nM | IC50 [2]: 1190 nM

CN1Cc2ccc(Oc3cc4c(cc3[N+](=O)[O-])OCCC4OP(=O)(N3CC3)N3CC3)cc2C1=O (single isomer, unassigned) [Example 201]
IC50 ([1]; Homo sapiens, NCI-H460, 72 h): < 10 nM | IC50 [2]: 605 nM

CN1Cc2ccc(Oc3cc4c(cc3[N+](=O)[O-])OCCC4OP(=O)(N3CC3)N3CC3)cc2C1=O (single isomer, unassigned) [Example 202]
IC50 [1]: < 10 nM | IC50 [2]: 1390 nM

O=C1c2cc(Oc3cc4c(cc3[N+](=O)[O-])OCCC4OP(=O)(N3CC3)N3CC3)ccc2CN1C1CC1 (single isomer, unassigned) [Example 203]
IC50 ([1]; Homo sapiens, NCI-H460, 72 h): < 10 nM | IC50 [2]: 959 nM

O=C1c2cc(Oc3cc4c(cc3[N+](=O)[O-])OCCC4OP(=O)(N3CC3)N3CC3)ccc2CN1C1CC1 (single isomer, unassigned) [Example 204]
IC50 [1]: 10 to 50 nM | IC50 [2]: 1550 nM

CC(OP(=O)(N1C[C@@H]1C)N1C[C@@H]1C)c1ccc([N+](=O)[O-])c(Oc2cccc(C(=O)N(C)C)c2)c1 (single isomer, unassigned) [Example 209]
IC50 ([1]; Homo sapiens, NCI-H460, 72 h): < 10 nM | IC50 [2]: 517 nM
